Test: 18-week stability of Compound I tablets packaged in 60 cc HDPE bottles with HIS; degradation products by HPLC
Format: physicochemical
Settings: Initial bulk, 0 weeks
Description: In an initial evaluation of oxygen absorbers, the bottles were sealed with heat induction seals (HIS). The following samples were prepared by placing the following materials in a round HDPE bottle (60 cc capacity) and sealing with a heat-induction seal:
Tablets were stored eighteen weeks under three different conditions: (1) 5° C./75% relative humidity (RH); (2) 40° C./75% RH; and (3) 50° C./20% RH. Air in the bottles was sampled using a gas tight syringe equipped with a septum seal as the foil was punctured. The sampled air was analyzed using a Mocon™ headspace analyzer (PAL Model 450 available from Mocon™ Inc., Minneapolis, Minn.). Each tablet was dissolved in 250 ml of a solution prepared by dissolving 21.6 g of octane sulfonic acid and 6.8 g of potassium phosphate in 1.0 liters of purified water and adjusting the pH to 3 with phosphoric acid followed by the addition of 818 mL of acetonitrile. Degradation products were identified by high pressure liquid chromatography (HPLC) (Waters sym C8 column, 15 cm×3.9 mm, nylon acrodisc filter, HPLC HP 1100 series, 20 μl injection volume, flow of 1 mL/min). The degradation products were compared against three known standards (Compounds I-1A′, I-1A″ and I-1B).

COc1ccc(C(C)C)cc1CN[C@@H]1C2CCN(CC2)[C@@H]1C(c1ccccc1)c1ccccc1 [Compound I]
I-1A′: 0.000 Wt % | I-1A″: 0.300 Wt % | I-1B: 0.027 Wt % | Total: 0.37% | Unknown (first Unknown column): 0.01 Area % | Unknown (second Unknown column): 0.03 Area %
